Here are results for 40 compounds from PubChem BioAssay AID624361 (Broad Institute, 2012).

Records with an inconclusive call do not appear. Active and inactive are the calls of the source. No rule for the calls is given here.

One experiment is described as follows: inhibitors of LMP1-driven NF-kB reporter, dose response, cell-based, EBV LMP1, luciferase, dry powder, set 2 (AID 624361). The note with it: LMP1-induced NF-kappaB luciferase reporter cells, luminescence; at 30 µM (top of the series).
Consider `C[C@H](NC(=O)C[C@@H]1C=C[C@H](NC(=O)Cc2ccccn2)[C@H](CO)O1)c1ccccc1`, for which the activity change, negative = inhibition is -0.706% (inactive).

Staying with this experiment, now noted: LMP1-induced NF-kappaB luciferase reporter cells, luminescence; at 35 µM (top of the series).
Regarding `C[C@H]1CN([C@@H](C)CO)C(=O)Cc2cc(NC(=O)Cc3ccccc3)ccc2O[C@@H]1CN(C)Cc1ccc(C(F)(F)F)cc1`, the activity change, negative = inhibition was -12.8% (inactive).

Consider `C[C@H](NC(=O)C[C@H]1C[C@@H]2c3cc(NC(=O)c4cccnc4)ccc3O[C@@H]2[C@@H](CO)O1)c1ccccc1`, for which the activity change, negative = inhibition is 0.067% (inactive).

With `C[C@H]1CN([C@@H](C)CO)C(=O)Cc2cc(NC(=O)Cc3ccccc3)ccc2O[C@H]1CN(C)Cc1ccc(C(F)(F)F)cc1`, the activity change, negative = inhibition is 11.5% (inactive).

Turning to `C[C@H](NC(=O)C[C@H]1C=C[C@H](NC(=O)Cc2ccccn2)[C@@H](CO)O1)c1ccccc1`, the activity change, negative = inhibition was 3.66% (inactive).

As for `C[C@@H]1CN([C@@H](C)CO)C(=O)Cc2cc(NC(=O)Cc3ccccc3)ccc2O[C@@H]1CN(C)Cc1ccc(C(F)(F)F)cc1`, the activity change, negative = inhibition is -12.6% (inactive).

Take `O=C(Cc1ccccn1)NCC[C@@H]1CC[C@@H](NC(=O)Nc2ccc(Cl)cc2)[C@H](CO)O1`: the activity change, negative = inhibition is 10.1% (inactive).

Take `O=C(C[C@H]1C[C@@H]2c3cc(NS(=O)(=O)c4ccc(F)cc4)ccc3O[C@@H]2[C@H](CO)O1)NC1CCCCC1`: the activity change, negative = inhibition was -1.53% (inactive).

On to `COC(=O)C[C@H]1C[C@H]2c3cc(NC(=O)CN(C)C)ccc3O[C@H]2[C@H](CO)O1`, for which the activity change, negative = inhibition was -4.37% (inactive).

As to `C[C@H](CO)N1C[C@H](C)[C@@H](CN(C)Cc2ccc(C(F)(F)F)cc2)Oc2ccc(NC(=O)Cc3ccccc3)cc2CC1=O`, the activity change, negative = inhibition is -11.3% (inactive).

Regarding `O=C(C[C@@H]1C[C@H]2c3cc(NS(=O)(=O)c4ccc(F)cc4)ccc3O[C@H]2[C@@H](CO)O1)NC1CCCCC1`, the activity change, negative = inhibition is -2.44% (inactive).

Take `C[C@@H](NC(=O)C[C@@H]1C=C[C@H](NC(=O)Cc2ccccn2)[C@@H](CO)O1)c1ccccc1`: the activity change, negative = inhibition was 8.29% (inactive).

Regarding `C[C@@H]1CN([C@H](C)CO)C(=O)c2c(c3ccccc3n2C)-c2ccccc2CO[C@H]1CN(C)C(=O)Nc1ccc(F)cc1`, the activity change, negative = inhibition is -3.16% (inactive).

For `CS(=O)(=O)Nc1ccc2c(c1)[C@@H]1C[C@H](CC(=O)NCC3CC3)O[C@H](CO)[C@@H]1O2`, the activity change, negative = inhibition is -4.41% (inactive).

For `Cc1noc(C)c1S(=O)(=O)Nc1ccc2c(c1)C(=O)N([C@H](C)CO)C[C@@H](C)[C@@H](CN(C)Cc1ccc(C(F)(F)F)cc1)OCCCC[C@@H](C)O2`, the activity change, negative = inhibition is 1.95% (inactive).

As for `COc1ccccc1CNC(=O)C[C@H]1C[C@@H]2c3cc(NC(=O)CN(C)C)ccc3O[C@@H]2[C@@H](CO)O1`, the activity change, negative = inhibition is 0.74% (inactive).

For `O=C(Cc1ccccn1)NCC[C@H]1CC[C@@H](NC(=O)Nc2ccc(Cl)cc2)[C@H](CO)O1`, the activity change, negative = inhibition is -2.38% (inactive).

Regarding `C[C@H](NC(=O)C[C@H]1C=C[C@@H](NC(=O)Cc2ccccn2)[C@@H](CO)O1)c1ccccc1`, the activity change, negative = inhibition was 11% (inactive).

Consider `O=C(Cc1ccccn1)NCC[C@@H]1CC[C@H](NC(=O)Nc2ccc(Cl)cc2)[C@@H](CO)O1`, for which the activity change, negative = inhibition was -3.42% (inactive).

Take `O=C(Cc1ccccn1)NCC[C@H]1CC[C@H](NC(=O)Nc2ccc(Cl)cc2)[C@@H](CO)O1`: the activity change, negative = inhibition is -4.61% (inactive).

Regarding `C[C@@H]1CN([C@@H](C)CO)C(=O)c2c(c3ccccc3n2C)-c2ccccc2CO[C@@H]1CN(C)C(=O)Nc1ccc(F)cc1`, the activity change, negative = inhibition was -5.35% (inactive).

In the case of `Cc1noc(C)c1S(=O)(=O)Nc1ccc2c(c1)C(=O)N([C@H](C)CO)C[C@H](C)[C@@H](CN(C)Cc1ccc(C(F)(F)F)cc1)OCCCC[C@@H](C)O2`, the activity change, negative = inhibition is -11.1% (inactive).

With `C[C@@H](NC(=O)C[C@H]1C=C[C@H](NC(=O)Cc2ccccn2)[C@@H](CO)O1)c1ccccc1`, the activity change, negative = inhibition is 9.43% (inactive).

For `C[C@@H]1CN([C@H](C)CO)C(=O)Cc2cc(NC(=O)Cc3ccccc3)ccc2O[C@H]1CN(C)Cc1ccc(C(F)(F)F)cc1`, the activity change, negative = inhibition was -9.16% (inactive).

On to `COc1ccccc1C(=O)Nc1ccc2c(c1)C(=O)N(C)[C@@H]1CC[C@H](CC(=O)NCCc3ccncc3)O[C@H]1CO2`, for which the activity change, negative = inhibition is -6.13% (inactive).

With `CS(=O)(=O)Nc1ccc2c(c1)[C@H]1C[C@@H](CC(=O)NCC3CC3)O[C@@H](CO)[C@H]1O2`, the activity change, negative = inhibition was 8.63% (inactive).

`C[C@H]1CN([C@@H](C)CO)C(=O)c2c(c3ccccc3n2C)-c2ccccc2CO[C@@H]1CN(C)C(=O)Nc1ccc(F)cc1`: the activity change, negative = inhibition is -12.4% (inactive).

For `C[C@@H](NC(=O)C[C@H]1C=C[C@@H](NC(=O)Cc2ccccn2)[C@H](CO)O1)c1ccccc1`, the activity change, negative = inhibition is -5.56% (inactive).

For `C[C@H](NC(=O)C[C@@H]1C=C[C@H](NC(=O)Cc2ccccn2)[C@@H](CO)O1)c1ccccc1`, the activity change, negative = inhibition was -0.999% (inactive).

With `C[C@H](CO)N1C[C@H](C)[C@H](CN(C)Cc2ccc(C(F)(F)F)cc2)Oc2ccc(NC(=O)Cc3ccccc3)cc2CC1=O`, the activity change, negative = inhibition is 4.01% (inactive).

For the compound `C[C@@H](NC(=O)C[C@H]1C[C@@H]2c3cc(NC(=O)c4cccnc4)ccc3O[C@@H]2[C@@H](CO)O1)c1ccccc1`, the activity change, negative = inhibition was -0.38% (inactive).

With `C[C@H](NC(=O)C[C@@H]1C=C[C@@H](NC(=O)Cc2ccccn2)[C@H](CO)O1)c1ccccc1`, the activity change, negative = inhibition is -0.475% (inactive).

On to `C[C@@H](NC(=O)C[C@@H]1C=C[C@@H](NC(=O)Cc2ccccn2)[C@H](CO)O1)c1ccccc1`, for which the activity change, negative = inhibition is 5.05% (inactive).

As for `C[C@@H]1CN([C@H](C)CO)C(=O)c2c(c3ccccc3n2C)-c2ccccc2CO[C@@H]1CN(C)C(=O)Nc1ccc(F)cc1`, the activity change, negative = inhibition is -8.91% (inactive).

In the case of `O=C(Cc1ccccn1)NCC[C@@H]1CC[C@H](NC(=O)Nc2ccc(Cl)cc2)[C@H](CO)O1`, the activity change, negative = inhibition was -5.88% (inactive).

For `O=C(C[C@@H]1C[C@@H]2c3cc(NC(=O)c4cccnc4)ccc3O[C@@H]2[C@H](CO)O1)NCC(F)(F)F`, the activity change, negative = inhibition was -2.29% (inactive).

On to `O=C(Cc1ccccn1)NCC[C@H]1CC[C@H](NC(=O)Nc2ccc(Cl)cc2)[C@H](CO)O1`, for which the activity change, negative = inhibition is -1.01% (inactive).

`CO[C@H]1CN(C)C(=O)c2ccc(NC(=O)C3CC3)cc2OC[C@H](C)N(C(=O)c2ccccn2)C[C@H]1C`: the activity change, negative = inhibition is -14% (inactive).

On to `CO[C@@H]1CN(C)C(=O)c2ccc(NC(C)=O)cc2OC[C@@H](C)N(Cc2ccccc2F)C[C@H]1C`, for which the activity change, negative = inhibition was 0.476% (inactive).

Consider `C[C@@H](NC(=O)C[C@@H]1C=C[C@H](NC(=O)Cc2ccccn2)[C@H](CO)O1)c1ccccc1`, for which the activity change, negative = inhibition is -1.52% (inactive).
